This data set in a line: Human HepG2 cell viability assay in 384 well format. It counts as toxicity, cell-based. The arrangement: dose 125 nL, time 70.5 hour; concentration not given beside the values. The following applies: HepG2 cells, read-out: Inhibition.

With `Fc1ccc(-c2cnc(CN3CCn4c(nnc4C4CC4)C3)o2)cc1`, the cytotoxicity at 70.5 h is -9.29%.

Consider `N#CC1(C(=O)N2CCCN(c3nccs3)CC2)CCCC1`, for which the cytotoxicity at 70.5 h is -11%.

For `Cc1cc2n(n1)CC(CNCc1ccc(-n3ccnc3C)nc1)CN2` (stereo unspecified), the cytotoxicity at 70.5 h was -20.7%.

With `Cc1noc(C)c1CCC(=O)N1CCCN(C)CC1`, the cytotoxicity at 70.5 h is -3.68%.

For the compound `CC(C(=O)NCc1ccnc(N2CCN(C)CC2)c1)S(C)(=O)=O` (stereo unspecified), the cytotoxicity at 70.5 h came out at 22.3%.

As to `CN(Cc1ccsc1)C(=O)c1ccc2c(c1)NC(=O)CO2`, the cytotoxicity at 70.5 h is -7.5%.

With `CC(C(=O)NCc1ccnc(N2CCCC2)c1)n1cccn1` (stereo unspecified), the cytotoxicity at 70.5 h was -10.3%.

As to `CC(NC(=O)CCc1ccsc1)c1ccc2c(c1)NC(=O)CO2` (stereo unspecified), the cytotoxicity at 70.5 h was -6.31%.

With `Cc1noc(C)c1CCC(=O)N1CCN(Cc2cscn2)CC1`, the cytotoxicity at 70.5 h is -2.32%.

Consider `Cc1noc(C)c1CC(=O)N1CCN(Cc2cscn2)CC1`, for which the cytotoxicity at 70.5 h was -1.94%.

Consider `Cc1csc(N2CCN(C(=O)C3(C#N)CCCC3)CC2)n1`, for which the cytotoxicity at 70.5 h was -5.35%.

As for `Cc1cc2n(n1)CC(CNCc1ccc(N3CCOCC3)nc1)CN2` (stereo unspecified), the cytotoxicity at 70.5 h was -9.07%.

For the compound `Cc1ccc(CNCC2CNc3cc(C)nn3C2)cn1` (stereo unspecified), the cytotoxicity at 70.5 h amounted to 15.9%.

Turning to `N#CC1(C(=O)N2CCCN(c3nccs3)CC2)CCCCC1`, the cytotoxicity at 70.5 h is -4.97%.

Regarding `CC(C(=O)NCc1ccnc(N2CCOCC2)c1)n1cccn1` (stereo unspecified), the cytotoxicity at 70.5 h is -10.1%.

Consider `CC(NC(=O)c1ccsc1)c1ccc2c(c1)NC(=O)CO2` (stereo unspecified), for which the cytotoxicity at 70.5 h was -3.38%.

As for `Cc1noc(C)c1CCC(=O)N1CCCN(CC(N)=O)CC1`, the cytotoxicity at 70.5 h was -16.1%.

Consider `COCCOc1ccc(CNCC2CNc3cc(C)nn3C2)cn1` (stereo unspecified), for which the cytotoxicity at 70.5 h was -4.87%.

Consider `CCOc1ccccc1C(CC(=O)Nc1ncc(C)s1)NC(C)=O` (stereo unspecified), for which the cytotoxicity at 70.5 h was 14.6%.

Take `CCOc1ccccc1C(CC(=O)Nc1ccncc1)NC(C)=O` (stereo unspecified): the cytotoxicity at 70.5 h is -7.74%.

Regarding `COC(=O)c1cc(C(=O)N2CCCCC2C)n(-c2ccccc2)n1` (stereo unspecified), the cytotoxicity at 70.5 h is 19.1%.

As to `Cc1cc(C)n(CC2CCCCN2C(=O)CCc2ccncc2)n1` (stereo unspecified), the cytotoxicity at 70.5 h was -0.893%.

On to `Cc1cnn(CC2CN(Cc3nc(-c4ccsc4)no3)CCO2)c1` (stereo unspecified), for which the cytotoxicity at 70.5 h is -14.2%.

`Cc1cnn(CCNCc2nnc(Cc3ccccc3)o2)c1`: the cytotoxicity at 70.5 h was -1.13%.

Regarding `Fc1ccccc1-c1nc(CNCCn2cccn2)cs1`, the cytotoxicity at 70.5 h was -3.88%.

With `Cc1ccc(-c2nc(CNC(C)Cn3cccn3)cs2)o1` (stereo unspecified), the cytotoxicity at 70.5 h was -3.26%.

Regarding `Cc1cc(C)c(CNC(=O)c2ccc3c(c2)CCC3)c(=O)[nH]1`, the cytotoxicity at 70.5 h turned out to be 4.13%.

Take `CC(C)Oc1ncccc1CNC(=O)N1CCSCC1`: the cytotoxicity at 70.5 h was -2.87%.

Take `O=C(Cc1ccc2c(c1)CCO2)N1CCN(c2nccs2)CC1`: the cytotoxicity at 70.5 h was -2.11%.

For `Cn1ccnc1CN1CCN(CCOc2cccc(C#N)c2)CC1`, the cytotoxicity at 70.5 h is -0.0786%.

As for `CC1CN(CCOc2cccc(C#N)c2)CCN1Cc1nccn1C` (stereo unspecified), the cytotoxicity at 70.5 h was -3.4%.

As to `Cc1nc(C2CCCN(C(=O)Cn3ccccc3=O)C2)sc1C` (stereo unspecified), the cytotoxicity at 70.5 h is -2.49%.

Regarding `Cc1csc(C2CCCN(C(=O)Cn3ccccc3=O)C2)n1` (stereo unspecified), the cytotoxicity at 70.5 h is -3.71%.

For the compound `Cc1nc(C2CCCN2C(=O)c2csc3c2CCCC3)no1` (stereo unspecified), the cytotoxicity at 70.5 h was -1.72%.

As to `Cc1nc(C2CCCN2CCC(=O)N2CCc3ccccc32)no1` (stereo unspecified), the cytotoxicity at 70.5 h is 4.14%.

Take `Cc1cc(C2CCCN2C(=O)c2cc3c(s2)CCC3)no1` (stereo unspecified): the cytotoxicity at 70.5 h was -0.925%.

For `CNS(=O)(=O)c1ccc(C(=O)NCCNc2ncccn2)cc1`, the cytotoxicity at 70.5 h is -12.3%.

Regarding `O=C(Cc1ccc2c(c1)CCCC2)NCCc1ccccn1`, the cytotoxicity at 70.5 h was -5.18%.

As to `COc1cc(CCC(=O)NC2CC2)ccc1OCC(F)(F)F`, the cytotoxicity at 70.5 h was -15.3%.

As to `Cc1cccc(CN(C)Cc2nc3c(cnn3C)c(=O)[nH]2)c1`, the cytotoxicity at 70.5 h is -14.2%.

As for `Cc1ccc(CNC(=O)CN2C=Nc3ccccc3S2(=O)=O)s1`, the cytotoxicity at 70.5 h is -11.3%.

(Values after ChEMBL document CHEMBL3507680, “University of Dundee, Gates Library screen for HepG2 cell viability”.)
